Test results taken from ChEMBL document CHEMBL5058564, “EUbOPEN Chemogenomics Library 2 (Incucyte)” (2022).

Assays:
Type in all cases: toxicity, cell-based
Fibroblast = assay: Incucyte cell viability with human fibroblast; conditions: 10 µM, compound concentration 10 uM
HEK-293T = assay: Incucyte cell viability with HEK293T; conditions: human, 10 µM, compound concentration 10 uM
U2OS = assay: Incucyte cell viability with U2OS; conditions: human, 10 µM, compound concentration 10 uM
[1] = 0 h, replicate number 2, timepoint 0 hours
[2] = 6 h, replicate number 1, timepoint 6 hours
[3] = 12 h, replicate number 1, timepoint 12 hours
[4] = 12 h, replicate number 2, timepoint 12 hours
[5] = 18 h, replicate number 1, timepoint 18 hours
[6] = 24 h, replicate number 1, timepoint 24 hours
[7] = 6 h, replicate number 2, timepoint 6 hours
[8] = 18 h, replicate number 2, timepoint 18 hours
[9] = 24 h, replicate number 2, timepoint 24 hours
[10] = 0 h, replicate number 1, timepoint 0 hours
Further: unitless GR value; below 1 slowed growth and below 0 cell loss.

SMILES	Growth Rate (Fibroblast; [1])	Growth Rate (Fibroblast; [2])	Growth Rate (Fibroblast; [3])	Growth Rate (Fibroblast; [4])	Growth Rate (Fibroblast; [5])	Growth Rate (Fibroblast; [6])	Growth Rate (HEK-293T; [3])	Growth Rate (HEK-293T; [4])	Growth Rate (HEK-293T; [5])	Growth Rate (HEK-293T; [8])	Growth Rate (HEK-293T; [6])	Growth Rate (U2OS; [2])	Growth Rate (U2OS; [7])	Growth Rate (U2OS; [4])	Growth Rate (U2OS; [5])	Growth Rate (HEK-293T; [1])	Growth Rate (HEK-293T; [2])	Growth Rate (Fibroblast; [7])	Growth Rate (Fibroblast; [8])	Growth Rate (Fibroblast; [9])	further results
C[C@@H](OC[C@@]1(c2ccccc2)CC[C@]2(CCC(=O)N2)CN1)c1cc(C(F)(F)F)cc(C(F)(F)F)c1 [ROLAPITANT]	0.28	-0.04	0.02	0.68	0.57	0.27	0.83	0.57	0.88	0.81	0.89	-0.32	0.54	0.49	0.79						Growth Rate (HEK-293T; [7]): 0.73; Growth Rate (HEK-293T; [9]): 1; Growth Rate (U2OS; [8]): 0.63; Growth Rate (U2OS; [6]): 0.84; Growth Rate (U2OS; [9]): 0.64
C[C@H]1[C@H]2CC[C@H]3[C@@H]4CC=C5C[C@@H](N(C)C)CC[C@]5(C)[C@H]4CC[C@]23CN1C [CONESSINE]	0.49	0.11	0.18		0.35	0.52	0.85		0.82		0.91		0.8	0.89		0.74	0.67				
O=C1[C@H](Cc2ccc(O)cc2)N2C(=O)CCN(C(=O)NCc3ccccc3)[C@H]2CN1Cc1cccc2ccccc12	0.82	-0.77	-0.6	-0.16	-0.71	-0.54	-0.35	-0.29	-0.29	-0.22	-0.24	0.4	0.87	0.6	0.11	0.37	-0.42	0.03	-0.07	-0.02	Growth Rate (Fibroblast; [10]): 0.78; Growth Rate (HEK-293T; [10]): 0.98; Growth Rate (HEK-293T; [7]): -0.2; Growth Rate (HEK-293T; [9]): -0.21; Growth Rate (U2OS; [10]): -0.65; Growth Rate (U2OS; [1]): 0.18; Growth Rate (U2OS; [3]): 0.14; Growth Rate (U2OS; [8]): 0.51; Growth Rate (U2OS; [6]): 0.3; Growth Rate (U2OS; [9]): 0.57
CN(C)CCn1cc(S(=O)(=O)c2cccc(F)c2)c2cccnc21.Cl.Cl	0.07	-0.17	0.56	0.68	0.65	0.75						0.56	0.76	0.98	0.8	0.35		0.86	0.64	0.57	Growth Rate (Fibroblast; [10]): -0.06; Growth Rate (HEK-293T; [10]): 0.41; Growth Rate (HEK-293T; [7]): 0.9; Growth Rate (U2OS; [3]): 0.39; Growth Rate (U2OS; [6]): 0.86
Cc1cc(C)cc(C(=O)NOCCCCCC(=O)NO)c1	0.7		0.99			0.77	0.54	0.67	0.24	0.37	0.15	0.82	0.51	0.5	0.34	0.38					Growth Rate (Fibroblast; [10]): -0.03; Growth Rate (HEK-293T; [9]): 0.32; Growth Rate (U2OS; [10]): 0.03; Growth Rate (U2OS; [1]): -0.5; Growth Rate (U2OS; [3]): 0.43; Growth Rate (U2OS; [8]): 0.4; Growth Rate (U2OS; [6]): 0.37; Growth Rate (U2OS; [9]): 0.36
CCOC(=O)N[C@@H]1CC[C@@H]2[C@@H](C1)C[C@H]1C(=O)O[C@H](C)[C@H]1[C@H]2/C=C/c1ccc(-c2cccc(F)c2)cn1 [VORAPAXAR]		0.13	-0.08	-0.18	-0.15	0.18	0.42	0.85	0.48	0.87	0.45			0.96			0.72	-0.65	-0.11	0.15	Growth Rate (HEK-293T; [9]): 0.95; Growth Rate (U2OS; [10]): -0.64; Growth Rate (U2OS; [8]): 0.88; Growth Rate (U2OS; [9]): 0.9
CC(=O)c1cc(-c2ccccc2OCC2CC2)c2ncccn12	0.39			0.88					0.98			0.45	0.99		0.98			0.72			Growth Rate (HEK-293T; [10]): 0.61; Growth Rate (U2OS; [10]): 0.8; Growth Rate (U2OS; [1]): 0.26; Growth Rate (U2OS; [6]): 0.98
C(#Cc1cccc(CN2CCOCC2)c1)CCN1CCCCC1		0.03	0.14	0.09	0.39	0.28	0.91		0.78		0.73					0.63		0.09	0.23	0.26	Growth Rate (HEK-293T; [10]): 0.61; Growth Rate (U2OS; [10]): 0.35; Growth Rate (U2OS; [1]): -1
Cl.Cl.NCCc1c[nH]cn1 [HISTAMINE DIHYDROCHLORIDE]			0.77	1	0.99	0.52	0.79		0.83	0.79	0.82	0.35		0.97	0.74	0.62	0.99		0.87	0.76	Growth Rate (Fibroblast; [10]): 0.45; Growth Rate (HEK-293T; [10]): 0.54; Growth Rate (HEK-293T; [9]): 0.75; Growth Rate (U2OS; [10]): 0.04; Growth Rate (U2OS; [1]): 0.37; Growth Rate (U2OS; [3]): 0.76
O=C(NCc1ccc(F)cc1)N1CCN2C(=O)OC(c3ccccc3)(c3ccccc3)C2C1 (centres undefined)	0.83					0.67			1		0.92	0.37	0.99				0.88	0.42			Growth Rate (Fibroblast; [10]): -0.48; Growth Rate (U2OS; [8]): 0.99; Growth Rate (U2OS; [9]): 0.97
OCCN1CCN(CCCN2c3ccccc3Sc3ccc(Cl)cc32)CC1 [PERPHENAZINE]		-0.61	-0.48	0.42	-0.34	-0.08	0.59	0.45	0.76	0.67	0.41		0.28	0.55			0.12	0.55	0.44	0.53	Growth Rate (HEK-293T; [7]): 0.25; Growth Rate (HEK-293T; [9]): 0.76; Growth Rate (U2OS; [3]): 0.85; Growth Rate (U2OS; [8]): 0.64; Growth Rate (U2OS; [6]): 1; Growth Rate (U2OS; [9]): 0.69
COc1cc2nc(N3CCN(C(=O)C4CCCO4)CC3)nc(N)c2cc1OC.Cl.O.O (centres undefined) [TERAZOSIN HYDROCHLORIDE]	0.43			0.84			0.69	0.83	0.78	0.79	0.87	0.56	0.76		0.88	0.29	0.91	0.32	0.8	0.57	Growth Rate (Fibroblast; [10]): 0.68; Growth Rate (HEK-293T; [10]): 0.72; Growth Rate (HEK-293T; [9]): 0.79; Growth Rate (U2OS; [1]): 0.74; Growth Rate (U2OS; [3]): 0.73; Growth Rate (U2OS; [6]): 0.99
CCc1cc2c(cc1-c1cccc(S(=O)(=O)F)c1)C(C)(C)c1[nH]c3cc(C#N)ccc3c1C2=O	0.22	0.03	-0.15	0.17	-0.21	-0.18	0.99	0.6	0.78	0.62	1	-0.03	0.92	0.81	0.58	0.5	0.46	0.66	0.47	0.58	Growth Rate (HEK-293T; [10]): 0.26; Growth Rate (HEK-293T; [7]): 0.37; Growth Rate (U2OS; [10]): 0.95; Growth Rate (U2OS; [1]): -1; Growth Rate (U2OS; [3]): 0.61; Growth Rate (U2OS; [8]): 0.78; Growth Rate (U2OS; [9]): 0.78
